Test [1] deals with spontaneous hypertensive rats. Conditions: acute; cited from earlier work.
Another test relates to anesthetized rats. The test can be described thus: Erectile responses: intracavernosal pressure (ICP) increases to cavernosal nerve electrical stimulation. In kind it is in vivo, rat (Sprague-Dawley). Conditions: 3 mg/kg i.v. The protocol:
The effects of nebivolol administration on rat erectile function were studied. Erectile responses in rats were evaluated by measuring intracavernosal pressure (ICP) increases to cavernosal nerve electrical stimulation. To measure ICP, rats (Sprague-Dawley) were anesthetized with ketolar and diazepam. The surgical procedure included dissection and isolation of the right cavernous nerve through an abdominal midline incision and exposure of penile crura through a transverse perineal incision. ICP measurements were permitted by insertion of a 23-gauge needle into the right crus. The right carotid artery and left external jugular vein were catheterized for constant blood pressure measurement and saline infusion, respectively. Electrostimulation was performed with a delicate platinum bipolar hook electrode connected to a stimulator and current amplifier. Parameters of electrical stimulation included pulses with a duration of 0.3 ms and 1.5 mA of current intensity for 1 min. Frequency-response curves were performed by applying stimulation at 1, 3 and 10 Hz with a lapse of 3 min between each increase of frequency.

With `OC(CNCC(O)C1CCc2cc(F)ccc2O1)C1CCc2cc(F)ccc2O1` (racemic) [nebivolol, α,α′-iminobis(methylene)bis[6-fluoro-2-chromanmethanol]], the “effect on blood pressure” value in test [1] is recorded as “acutely lowers blood pressure”. Further, the “effect on erectile responses to CNES” value with anesthetized rats is given as “significantly potentiated”. For the same compound, the “AUC of ICP at 3 Hz” value in the test with anesthetized rats (control 1612±294, p<0.05) is listed as 2544±440 mmHg×s.

These data come from patent US20090181975A1, “NEBIVOLOL IN THE TREATMENT OF SEXUAL DYSFUNCTION” (FOREST LABORATORIES HOLDINGS LIMITED, priority 2008, published 2009).
